Assay results from PubChem BioAssay AID330 (DTP/NCI, 2004).
Where “and” joins values, the source holds several entries; their conditions need not be identical. Equal entries are not always repeated. Toxic doses and inconclusive results are not listed.

Test system: P388 leukemia ip, CD2F1 mice, survival T/C
Experiment: NCI In Vivo Anticancer Drug Screen. Data for tumor model P388 Leukemia (intraperitoneal) in CD2F1 (CDF1) mice
Conditions: endpoint: median survival time, higher = longer survival
Procedure, shortened: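 Mice carrying the transplanted tumor received test compound or vehicle. Survival was recorded in each group, and the value is the treated-group measurement divided by that of the vehicle-treated control group.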

[1] = dose: 12.5 mg/kg/injection, schedule: Q01DX009 (ip), vehicle: saline
[2] = dose: 60.0 mg/kg/injection, schedule: Q01DX005 (ip), vehicle: saline with Tween-80
[3] = dose: 120.0 mg/kg/injection, schedule: Q01DX005 (ip), vehicle: saline with Tween-80
[4] = dose: 50.0 mg/kg/injection, schedule: Q01DX009 (ip), vehicle: saline with Tween-80
[5] = dose: 100.0 mg/kg/injection, schedule: Q01DX009 (ip), vehicle: saline with Tween-80
[6] = dose: 200.0 mg/kg/injection, schedule: Q01DX009 (ip), vehicle: saline with Tween-80
[7] = dose: 400.0 mg/kg/injection, schedule: Q01DX009 (ip), vehicle: saline with Tween-80
[8] = dose: 10.0 mg/kg/injection, schedule: Q01DX009 (ip), vehicle: saline with Tween-80
[9] = dose: 240.0 mg/kg/injection, schedule: Q01DX005 (ip), vehicle: saline with Tween-80
[10] = dose: 50.0 mg/kg/injection, schedule: Q01DX009 (ip), vehicle: saline
[11] = dose: 50.0 mg/kg/injection, schedule: Q01DX005 (ip), vehicle: Klucel (hydroxypropylcellulose) (HPC)
[12] = dose: 100.0 mg/kg/injection, schedule: Q01DX005 (ip), vehicle: Klucel (hydroxypropylcellulose) (HPC)
[13] = dose: 200.0 mg/kg/injection, schedule: Q01DX005 (ip), vehicle: Klucel (hydroxypropylcellulose) (HPC)
[14] = dose: 100.0 mg/kg/injection, schedule: Q01DX001 (ip), vehicle: saline with Tween-80
[15] = dose: 200.0 mg/kg/injection, schedule: Q01DX001 (ip), vehicle: saline with Tween-80
[16] = dose: 400.0 mg/kg/injection, schedule: Q01DX001 (ip), vehicle: saline with Tween-80

O=Cc1ccc(O)c(CN2CCCCC2)c1
T/C (dose: 6.25 mg/kg/injection, schedule: Q04DX003 (ip), vehicle: saline): 109 % of control
T/C (dose: 12.5 mg/kg/injection, schedule: Q04DX003 (ip), vehicle: saline): 100 % of control
T/C (dose: 25.0 mg/kg/injection, schedule: Q04DX003 (ip), vehicle: saline): 100 % of control

NCC(=O)NCC(=O)NC(CCCN=C(N)N)C(=O)O (stereo not drawn)
T/C (dose: 50.0 mg/kg/injection, schedule: Q01DX005 (ip), vehicle: saline): 100 % of control
T/C (dose: 100.0 mg/kg/injection, schedule: Q01DX005 (ip), vehicle: saline): 103 % of control
T/C (dose: 200.0 mg/kg/injection, schedule: Q01DX005 (ip), vehicle: saline): 99 % of control

COCCCNP(=S)(N1CC1)N1CC1
T/C (dose: 3.0 mg/kg/injection, schedule: Q04DX003 (ip), vehicle: saline): 110 % of control
T/C (dose: 6.0 mg/kg/injection, schedule: Q04DX003 (ip), vehicle: saline): 115 % of control
T/C [1]: 170 % of control
T/C (dose: 25.0 mg/kg/injection, schedule: Q04DX003 (ip), vehicle: saline with Tween-80): 186 % of control

CCN(CC)C(=S)C(C)(C)C
T/C [2]: 106 % of control
T/C [3]: 106 % of control

Cc1ccc(SCC(=O)O)c(C)c1
T/C [4]: 88 % of control
T/C [5]: 88 % of control
T/C [6]: 94 % of control
T/C [7]: 103 % of control

C=C1C(=O)OC2/C=C(\C)C(O)CC(O)C(C)(O)CC(OC(=O)/C(C)=C/C)C12 (stereo not drawn)
T/C [8]: 102 % of control
T/C (dose: 20.0 mg/kg/injection, schedule: Q01DX009 (ip), vehicle: saline with Tween-80): 100 % of control and 119 % of control and 97 % of control
T/C (dose: 40.0 mg/kg/injection, schedule: Q01DX009 (ip), vehicle: saline with Tween-80): 101 % of control and 113 % of control and 123 % of control
T/C (dose: 80.0 mg/kg/injection, schedule: Q01DX009 (ip), vehicle: saline with Tween-80): 113 % of control and 115 % of control

Nc1nc2nc(CBr)c(CBr)nc2c(=O)[nH]1
T/C (dose: 25.0 mg/kg/injection, schedule: Q01DX009 (ip), vehicle: saline with Tween-80): 115 % of control
T/C [4]: 118 % of control
T/C [5]: 122 % of control
T/C [6]: 100 % of control

O=C(O)c1cc(S(=O)(=O)F)c(Cl)cc1Cl
T/C [2]: 119 % of control
T/C [3]: 104 % of control
T/C [9]: 104 % of control

O=C(NC(=O)C(F)(F)C(F)(F)C(F)(F)F)Nc1cccc(F)c1
T/C [4]: 100 % of control
T/C [5]: 100 % of control
T/C [6]: 100 % of control

[Cl][Pt+2][Cl].[NH-]c1cccc(F)c1.[NH-]c1cccc(F)c1
T/C (dose: 3.12 mg/kg/injection, schedule: Q01DX009 (ip), vehicle: Klucel (hydroxypropylcellulose) (HPC)): 158 % of control
T/C (dose: 6.25 mg/kg/injection, schedule: Q01DX009 (ip), vehicle: Klucel (hydroxypropylcellulose) (HPC)): 155 % of control

CCOC(=O)c1ccc(N(CCC2CO2)S(=O)(=O)c2ccc(C)cc2)cc1 (stereo not drawn)
T/C (dose: 25.0 mg/kg/injection, schedule: Q01DX009 (ip), vehicle: Klucel (hydroxypropylcellulose) (HPC)): 94 % of control
T/C (dose: 50.0 mg/kg/injection, schedule: Q01DX009 (ip), vehicle: Klucel (hydroxypropylcellulose) (HPC)): 93 % of control
T/C (dose: 100.0 mg/kg/injection, schedule: Q01DX009 (ip), vehicle: Klucel (hydroxypropylcellulose) (HPC)): 98 % of control
T/C (dose: 200.0 mg/kg/injection, schedule: Q01DX009 (ip), vehicle: Klucel (hydroxypropylcellulose) (HPC)): 94 % of control

O=C1Nc2ccccc2S/C1=C/c1ccccc1
T/C (dose: 50.0 mg/kg/injection, schedule: Q01DX009 (ip), vehicle: gum acacia): 109 % of control
T/C (dose: 100.0 mg/kg/injection, schedule: Q01DX009 (ip), vehicle: gum acacia): 113 % of control
T/C (dose: 200.0 mg/kg/injection, schedule: Q01DX009 (ip), vehicle: gum acacia): 97 % of control

COCC(=O)O
T/C [10]: 96 % of control
T/C (dose: 100.0 mg/kg/injection, schedule: Q01DX009 (ip), vehicle: saline): 93 % of control

O=C1NC(=O)[C@H]2C3C=CC([C@@H]12)[C@@H]1C(=O)NC(=O)[C@H]31
T/C (dose: 25.0 mg/kg/injection, schedule: Q01DX009 (ip), vehicle: water): 105 % of control
T/C (dose: 50.0 mg/kg/injection, schedule: Q01DX009 (ip), vehicle: water): 100 % of control
T/C (dose: 100.0 mg/kg/injection, schedule: Q01DX009 (ip), vehicle: water): 97 % of control
T/C (dose: 200.0 mg/kg/injection, schedule: Q01DX009 (ip), vehicle: water): 92 % of control

Oc1cc(-c2ccc(Cl)cc2)c(O)cc1CN1CCOCC1
T/C (dose: 100.0 mg/kg/injection, schedule: Q04DX002 (ip), vehicle: saline with Tween-80): 92 % of control
T/C (dose: 200.0 mg/kg/injection, schedule: Q04DX002 (ip), vehicle: saline with Tween-80): 91 % of control
T/C (dose: 400.0 mg/kg/injection, schedule: Q04DX002 (ip), vehicle: saline with Tween-80): 92 % of control

COC(=O)c1c(C(N)=O)c(C)n(NC(=O)Nc2ccccc2)c1C
T/C (dose: 50.0 mg/kg/injection, schedule: Q01DX005 (ip), vehicle: saline with Tween-80): 96 % of control
T/C (dose: 100.0 mg/kg/injection, schedule: Q01DX005 (ip), vehicle: saline with Tween-80): 89 % of control
T/C (dose: 200.0 mg/kg/injection, schedule: Q01DX005 (ip), vehicle: saline with Tween-80): 94 % of control

CCCCN(CCCC)c1nn[nH]n1
T/C [11]: 89 % of control
T/C [12]: 94 % of control
T/C [13]: 95 % of control

N#CC[N+]1(Cc2ccccn2)CCCC1
T/C (dose: 60.0 mg/kg/injection, schedule: Q01DX005 (ip), vehicle: saline): 101 % of control
T/C (dose: 120.0 mg/kg/injection, schedule: Q01DX005 (ip), vehicle: saline): 108 % of control

CCC[CH2][Sn]([CH2]CCC)([O][P+](=O)C[Si](C)(C)c1ccccc1)[O][P+](=O)C[Si](C)(C)c1ccccc1 (stereo not drawn)
T/C [2]: 108 % of control
T/C [3]: 115 % of control
T/C [9]: 122 % of control

CCN(CC)c1ccc(/C=C2/C=Cc3ccccc32)cc1
T/C [5]: 105 % of control
T/C [6]: 100 % of control
T/C [7]: 95 % of control

O=C(CF)c1ccc(Cl)cc1
T/C [4]: 99 % of control
T/C [5]: 106 % of control
T/C [6]: 111 % of control

CCOC(=O)c1ccc(NC(=O)Nc2nncs2)cc1
T/C (dose: 6.25 mg/kg/injection, schedule: Q01DX009 (ip), vehicle: distilled water + Tween-80): 114 % of control
T/C (dose: 12.5 mg/kg/injection, schedule: Q01DX009 (ip), vehicle: distilled water + Tween-80): 119 % of control

O=C(O)c1cc2cc3c(cc2c2ccccc12)OCO3
T/C [11]: 100 % of control
T/C [12]: 106 % of control
T/C [13]: 108 % of control

CC(C)CC(=O)CC(=O)C(C)(C)C.CC(C)CC(=O)CC(=O)C(C)(C)C.[Cu]
T/C (dose: 25.0 mg/kg/injection, schedule: Q04DX003 (ip), vehicle: Klucel (hydroxypropylcellulose) (HPC)): 100 % of control
T/C (dose: 50.0 mg/kg/injection, schedule: Q04DX003 (ip), vehicle: Klucel (hydroxypropylcellulose) (HPC)): 101 % of control
T/C (dose: 100.0 mg/kg/injection, schedule: Q04DX003 (ip), vehicle: Klucel (hydroxypropylcellulose) (HPC)): 98 % of control and 106 % of control

CCOC(=O)CNC(=O)OCCS(=O)CCOC(=O)NCC(=O)OCC
T/C (dose: 100.0 mg/kg/injection, schedule: Q01DX001 (ip), vehicle: saline): 98 % of control
T/C (dose: 200.0 mg/kg/injection, schedule: Q01DX001 (ip), vehicle: saline): 93 % of control
T/C (dose: 400.0 mg/kg/injection, schedule: Q01DX001 (ip), vehicle: saline): 101 % of control

Cc1cc(O)c(O)cc1C/C=C/c1ccccc1
T/C (dose: 2.5 mg/kg/injection, schedule: Q01DX009 (ip), vehicle: saline with Tween-80): 101 % of control
T/C (dose: 5.0 mg/kg/injection, schedule: Q01DX009 (ip), vehicle: saline with Tween-80): 100 % of control
T/C [8]: 100 % of control

O=S1(=O)OC2(c3ccccc31)c1cc(Br)c(O)c(O)c1Oc1c2cc(Br)c(O)c1O
T/C [1]: 105 % of control
T/C (dose: 25.0 mg/kg/injection, schedule: Q01DX009 (ip), vehicle: saline): 103 % of control
T/C [10]: 88 % of control

Clc1ccc(C=Nc2ccc(N=Cc3ccc(Cl)cc3)cc2)cc1
T/C [14]: 90 % of control
T/C [15]: 88 % of control
T/C [16]: 87 % of control

CC(=O)OCC1OC(n2ccc3c(=O)n(C)c(=O)[nH]c32)C(OC(C)=O)C(OC(C)=O)C1OC(C)=O (stereo not drawn)
T/C [14]: 92 % of control
T/C [15]: 105 % of control
T/C [16]: 108 % of control
